According to patent publication US20210267944A1 (BioXcel Therapeutics, Inc., priority 2018, published 2021):
Where a name gives a salt, the structure may show the parent alone. Read-outs that look alike come from different tables or passages of the source.

Details: for Diastolic blood pressure Mean ± SD / Diastolic blood pressure Median / Diastolic blood pressure Min / Heart rate Max / Heart rate Mean ± SD / Heart rate Median / Heart rate Min / Diastolic blood pressure Max / Systolic blood pressure, Max / Systolic blood pressure, Mean ± SD / Systolic blood pressure, Median / Systolic blood pressure, Min: opioid withdrawal patients
Description: The participants were continuously monitored by the site personnel, including blood pressure and heart rate, from the start of the infusion through resolution of sedation and/or any adverse effects on blood pressure or heart rate. An electrocardiogram was obtained at screening, pre-infusion and upon resolution of sedation, a predetermined reduction in COWS or return to baseline.

[1] = Day-1, 30 min. post Infusion, n=11
[2] = Day-2, 30 min. post Infusion, n=5
[3] = opioid withdrawal, during infusion

Cc1cccc([C@H](C)c2cnc[nH]2)c1C [dexmedetomidine hydrochloride]
Diastolic blood pressure Mean ± SD (Day-2, 01:15 Hr): 78.5 ± 22.5 mm of Hg
Diastolic blood pressure Median (Day-2, 01:15 Hr): 78.5 mm of Hg
Diastolic blood pressure Min (Day-2, 01:15 Hr): 56 mm of Hg
Heart rate Max (Day-2, 01:15 Hr): 100 beats/minutes
Heart rate Mean ± SD (Day-2, 01:15 Hr): 88 ± 12 beats/minutes
Heart rate Median (Day-2, 01:15 Hr): 88 beats/minutes
Heart rate Min (Day-2, 01:15 Hr): 76 beats/minutes
Diastolic blood pressure Max (Day-2, 01:30 Hr): 75 mm of Hg
Diastolic blood pressure Mean ± SD (Day-2, 01:30 Hr): 75 mm of Hg
Diastolic blood pressure Median (Day-2, 01:30 Hr): 75 mm of Hg
Diastolic blood pressure Min (Day-2, 01:30 Hr): 75 mm of Hg
Heart rate Max (Day-2, 01:30 Hr): 73 beats/minutes
Heart rate Mean ± SD (Day-2, 01:30 Hr): 73 beats/minutes
Heart rate Median (Day-2, 01:30 Hr): 73 beats/minutes
Heart rate Min (Day-2, 01:30 Hr): 73 beats/minutes
Diastolic blood pressure Max (Day-2, 01:45 Hr): 89 mm of Hg
Diastolic blood pressure Mean ± SD (Day-2, 01:45 Hr): 89 mm of Hg
Diastolic blood pressure Median (Day-2, 01:45 Hr): 89 mm of Hg
Diastolic blood pressure Min (Day-2, 01:45 Hr): 89 mm of Hg
Heart rate Max (Day-2, 01:45 Hr): 92 beats/minutes
Heart rate Mean ± SD (Day-2, 01:45 Hr): 92 beats/minutes
Heart rate Median (Day-2, 01:45 Hr): 92 beats/minutes
Heart rate Min (Day-2, 01:45 Hr): 92 beats/minutes
Diastolic blood pressure Max (Day-2, 02:00 Hr): 90 mm of Hg
Diastolic blood pressure Mean ± SD (Day-2, 02:00 Hr): 90 mm of Hg
Diastolic blood pressure Median (Day-2, 02:00 Hr): 90 mm of Hg
Diastolic blood pressure Min (Day-2, 02:00 Hr): 90 mm of Hg
Heart rate Max (Day-2, 02:00 Hr): 94 beats/minutes
Heart rate Mean ± SD (Day-2, 02:00 Hr): 94 beats/minutes
Heart rate Median (Day-2, 02:00 Hr): 94 beats/minutes
Heart rate Min (Day-2, 02:00 Hr): 94 beats/minutes
Diastolic blood pressure Max (Day-2, 30 min. post Infusion): 98 mm of Hg
Diastolic blood pressure Mean ± SD (Day-2, 30 min. post Infusion): 84.4 ± 9.24 mm of Hg
Diastolic blood pressure Median (Day-2, 30 min. post Infusion): 86 mm of Hg
Diastolic blood pressure Min (Day-2, 30 min. post Infusion): 70 mm of Hg
Heart rate Max (Day-2, 30 min. post Infusion): 90 beats/minutes
Heart rate Mean ± SD (Day-2, 30 min. post Infusion): 70.8 ± 15.72 beats/minutes
Heart rate Median (Day-2, 30 min. post Infusion): 60 beats/minutes
Heart rate Min (Day-2, 30 min. post Infusion): 56 beats/minutes
all the vital signs values (opioid withdrawal): within clinically acceptable limits
Systolic blood pressure, Max (Day-1, 00:00 Hr, n=11): 178 mm of Hg
Systolic blood pressure, Mean ± SD (Day-1, 00:00 Hr, n=11): 134 ± 15.77 mm of Hg
Systolic blood pressure, Median (Day-1, 00:00 Hr, n=11): 127 mm of Hg
Systolic blood pressure, Min (Day-1, 00:00 Hr, n=11): 120 mm of Hg
Systolic blood pressure, Max (Day-1, 00:15 Hr, n=11): 157 mm of Hg
Systolic blood pressure, Mean ± SD (Day-1, 00:15 Hr, n=11): 129.73 ± 13.68 mm of Hg
Systolic blood pressure, Median (Day-1, 00:15 Hr, n=11): 127 mm of Hg
Systolic blood pressure, Min (Day-1, 00:15 Hr, n=11): 112 mm of Hg
Systolic blood pressure, Max (Day-1, 00:30 Hr, n=9): 160 mm of Hg
Systolic blood pressure, Mean ± SD (Day-1, 00:30 Hr, n=9): 124.78 ± 15.55 mm of Hg
Systolic blood pressure, Median (Day-1, 00:30 Hr, n=9): 128 mm of Hg
Systolic blood pressure, Min (Day-1, 00:30 Hr, n=9): 107 mm of Hg
Systolic blood pressure, Max (Day-1, 00:45 Hr, n=6): 125 mm of Hg
Systolic blood pressure, Mean ± SD (Day-1, 00:45 Hr, n=6): 113 ± 8.24 mm of Hg
Systolic blood pressure, Median (Day-1, 00:45 Hr, n=6): 114 mm of Hg
Systolic blood pressure, Min (Day-1, 00:45 Hr, n=6): 100 mm of Hg
Systolic blood pressure, Max (Day-1, 01:00 Hr, n=5): 120 mm of Hg
Systolic blood pressure, Mean ± SD (Day-1, 01:00 Hr, n=5): 114 ± 4.85 mm of Hg
Systolic blood pressure, Median (Day-1, 01:00 Hr, n=5): 115 mm of Hg
Systolic blood pressure, Min (Day-1, 01:00 Hr, n=5): 107 mm of Hg
Systolic blood pressure, Max (Day-1, 01:15 Hr, n=3): 112 mm of Hg
Systolic blood pressure, Mean ± SD (Day-1, 01:15 Hr, n=3): 110 ± 1.63 mm of Hg
Systolic blood pressure, Median (Day-1, 01:15 Hr, n=3): 110 mm of Hg
Systolic blood pressure, Min (Day-1, 01:15 Hr, n=3): 108 mm of Hg
Systolic blood pressure, Max (Day-1, 01:30 Hr, n=2): 112 mm of Hg
Systolic blood pressure, Mean ± SD (Day-1, 01:30 Hr, n=2): 106.5 ± 5.5 mm of Hg
Systolic blood pressure, Median (Day-1, 01:30 Hr, n=2): 106.5 mm of Hg
Systolic blood pressure, Min (Day-1, 01:30 Hr, n=2): 101 mm of Hg
Systolic blood pressure, Max [1]: 160 mm of Hg
Systolic blood pressure, Mean ± SD [1]: 130.91 ± 18.09 mm of Hg
Systolic blood pressure, Median [1]: 129 mm of Hg
Systolic blood pressure, Min [1]: 108 mm of Hg
Systolic blood pressure, Max (Day-1, Screening, n=11): 170 mm of Hg
Systolic blood pressure, Mean ± SD (Day-1, Screening, n=11): 130.36 ± 16.92 mm of Hg
Systolic blood pressure, Median (Day-1, Screening, n=11): 127 mm of Hg
Systolic blood pressure, Min (Day-1, Screening, n=11): 110 mm of Hg
Systolic blood pressure, Max (Day-2, 00:00 Hr, n=5): 141 mm of Hg
Systolic blood pressure, Mean ± SD (Day-2, 00:00 Hr, n=5): 127.2 ± 11.37 mm of Hg
Systolic blood pressure, Median (Day-2, 00:00 Hr, n=5): 133 mm of Hg
Systolic blood pressure, Min (Day-2, 00:00 Hr, n=5): 109 mm of Hg
Systolic blood pressure, Max (Day-2, 00:15 Hr, n=5): 139 mm of Hg
Systolic blood pressure, Mean ± SD (Day-2, 00:15 Hr, n=5): 123.6 ± 13.41 mm of Hg
Systolic blood pressure, Median (Day-2, 00:15 Hr, n=5): 131 mm of Hg
Systolic blood pressure, Min (Day-2, 00:15 Hr, n=5): 103 mm of Hg
Systolic blood pressure, Max (Day-2, 00:30 Hr, n=5): 137 mm of Hg
Systolic blood pressure, Mean ± SD (Day-2, 00:30 Hr, n=5): 121.6 ± 12.15 mm of Hg
Systolic blood pressure, Median (Day-2, 00:30 Hr, n=5): 125 mm of Hg
Systolic blood pressure, Min (Day-2, 00:30 Hr, n=5): 106 mm of Hg
Systolic blood pressure, Max (Day-2, 00:45 Hr, n=4): 131 mm of Hg
Systolic blood pressure, Mean ± SD (Day-2, 00:45 Hr, n=4): 123.15 ± 9.17 mm of Hg
Systolic blood pressure, Median (Day-2, 00:45 Hr, n=4): 128 mm of Hg
Systolic blood pressure, Min (Day-2, 00:45 Hr, n=4): 108 mm of Hg
Systolic blood pressure, Max (Day-2, 01:00 Hr, n=3): 132 mm of Hg
Systolic blood pressure, Mean ± SD (Day-2, 01:00 Hr, n=3): 124.33 ± 9.46 mm of Hg
Systolic blood pressure, Median (Day-2, 01:00 Hr, n=3): 130 mm of Hg
Systolic blood pressure, Min (Day-2, 01:00 Hr, n=3): 111 mm of Hg
Systolic blood pressure, Max (Day-2, 01:15 Hr, n=2): 130 mm of Hg
Systolic blood pressure, Mean ± SD (Day-2, 01:15 Hr, n=2): 115.5 ± 14.5 mm of Hg
Systolic blood pressure, Median (Day-2, 01:15 Hr, n=2): 115.5 mm of Hg
Systolic blood pressure, Min (Day-2, 01:15 Hr, n=2): 101 mm of Hg
Systolic blood pressure, Mean ± SD (Day-2, 01:30 Hr, n=1): 114 mm of Hg
Systolic blood pressure, Median (Day-2, 01:30 Hr, n=1): 114 mm of Hg
Systolic blood pressure, Mean ± SD (Day-2, 01:45 Hr, n=1): 112 mm of Hg
Systolic blood pressure, Median (Day-2, 01:45 Hr, n=1): 112 mm of Hg
Systolic blood pressure, Mean ± SD (Day-2, 02:00 Hr, n=1): 114 mm of Hg
Systolic blood pressure, Median (Day-2, 02:00 Hr, n=1): 114 mm of Hg
Systolic blood pressure, Max [2]: 146 mm of Hg
Systolic blood pressure, Mean ± SD [2]: 127.6 ± 13.1 mm of Hg
Systolic blood pressure, Median [2]: 130 mm of Hg
Systolic blood pressure, Min [2]: 110 mm of Hg
Diastolic blood pressure mean values, in words [3]: within clinically acceptable limits
Heart rate mean values, in words [3]: within clinically acceptable limits
Systolic blood pressure mean values, in words [3]: within clinically acceptable limits
heart rate at which stopping criteria was met (opioid withdrawal, one patient, after 15 minutes): ≤ 50
